The target of test [1] is T1, 5-HT2C edited (accession number AAF35842.1) (Homo sapiens, UniProt P28335, I156V/I160V/N158S). Description: cell-based.
Target sequence in this assay (P28335 33-458 I156V/N158S/I160V limits assumed): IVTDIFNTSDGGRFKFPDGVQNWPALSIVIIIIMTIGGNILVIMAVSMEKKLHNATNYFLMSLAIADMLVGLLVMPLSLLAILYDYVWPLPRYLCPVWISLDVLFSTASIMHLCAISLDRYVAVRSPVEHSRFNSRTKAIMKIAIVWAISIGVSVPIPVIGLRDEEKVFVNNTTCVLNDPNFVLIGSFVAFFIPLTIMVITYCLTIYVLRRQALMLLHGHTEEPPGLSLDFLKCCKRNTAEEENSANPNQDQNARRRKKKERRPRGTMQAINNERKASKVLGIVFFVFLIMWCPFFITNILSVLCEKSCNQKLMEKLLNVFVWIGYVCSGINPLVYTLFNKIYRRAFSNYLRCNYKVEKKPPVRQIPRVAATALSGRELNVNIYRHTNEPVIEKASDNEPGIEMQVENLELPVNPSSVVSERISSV
Test [2] deals with T1, 5-HT2C edited (accession number AAF35842.1). Description: biochemical. Type of test: binding.
Target sequence in this assay (P28335 whole entry I156V/N158S/I160V, looked up): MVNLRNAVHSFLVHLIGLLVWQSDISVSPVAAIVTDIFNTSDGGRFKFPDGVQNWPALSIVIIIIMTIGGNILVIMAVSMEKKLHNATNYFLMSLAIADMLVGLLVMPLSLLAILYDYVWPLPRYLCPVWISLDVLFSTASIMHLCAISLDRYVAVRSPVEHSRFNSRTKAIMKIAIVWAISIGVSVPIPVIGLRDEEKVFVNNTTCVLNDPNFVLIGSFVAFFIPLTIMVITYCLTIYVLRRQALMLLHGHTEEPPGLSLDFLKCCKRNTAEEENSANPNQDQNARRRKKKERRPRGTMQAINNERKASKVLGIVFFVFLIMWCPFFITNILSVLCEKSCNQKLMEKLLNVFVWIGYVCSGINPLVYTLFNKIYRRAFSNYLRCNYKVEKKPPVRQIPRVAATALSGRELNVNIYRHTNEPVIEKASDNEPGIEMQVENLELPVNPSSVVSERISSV

A value given as a limit tells only on which side of the number the result lay.

`CN(C)CC(=O)n1ccc2ccccc21` [Example 44, 2-(dimethylamino)-1-(1H-indol-1-yl)ethan-1-one]: in test [1], the EC50 – broadly, the midpoint of the concentration-response curve – was above 10 µM. Besides, in test [2], the IC50 (in general, the point on the concentration scale where inhibition reaches its midpoint) was above 10 µM.
In turn, `COc1ccc2c(ccn2[C@H]2C[C@@H](N(C)C)C2)c1` [Example 24, (1s,3s)-3-(5-methoxy-1H-indol-1-yl)-N,N-dimethylcyclobutan-1-amine] gave an EC50 in test [1] above 10 µM. In test [2], this compound showed an IC50 of 1 to 10 µM.
For `C[C@@H](N)Cn1ccc2cnccc21` [Example 37, (R)-1-(1H-pyrrolo[3,2-c]pyridin-1-yl)propan-2-amine], in that order: 1 to 10 µM and above 10 µM.
For `CN(C)C(C)(C)Cn1ccc2cc(F)ccc21` [Example 14, 1-(5-fluoro-1H-indol-1-yl)-N,N,2-trimethylpropan-2-amine], in that order: above 10 µM and above 10 µM.
In test [1], `CN[C@H](C)Cn1ccc2cnccc21` [Example 38, (R)—N-methyl-1-(1H-pyrrolo[3,2-c]pyridin-1-yl)propan-2-amine] yielded an EC50 above 10 µM. Besides, the concentration for half-maximal inhibition (IC50) in test [2] is above 10 µM.
As for `COc1ccc2c(c1)CCCN2CCN(C)C` [Example 9, 2-(6-methoxy-3,4-dihydroquinolin-1(2H)-yl)-N,N-dimethylethan-1-amine], the EC50 in test [1] is above 10 µM. The IC50 in test [2] was 0.101 to 1 µM.
With `COc1ccc2c(ccn2CC(C)(C)N(C)C)c1F` [Example 15, 1-(4-fluoro-5-methoxy-1H-indol-1-yl)-N,N,2-trimethylpropan-2-amine], the EC50 in test [1] is above 10 µM. The same compound returned an IC50 in test [2] above 10 µM.
In test [1], `COc1cc2ccn(CC(C)(C)N(C)C)c2cn1` [Example 22, 1-(5-methoxy-1H-pyrrolo[2,3-c]pyridin-1-yl)-N,N,2-trimethylpropan-2-amine] yielded an EC50 above 10 µM. Further, the IC50 in test [2] was above 10 µM.
In turn, `COc1ccc2c(c1)CCN2CCN(C)C` [Example 8, 2-(5-methoxyindolin-1-yl)-N,N-dimethylethan-1-amine] had an EC50 in test [1] above 10 µM. The IC50 in test [2] is 1 to 10 µM.
In turn, `COc1cnc2c(ccn2CCN(C)C)c1` [Example 5, 2-(5-methoxy-1H-pyrrolo[2,3-b]pyridin-1-yl)-N,N-dimethylethan-1-amine] came in with an EC50 in test [1] above 10 µM. For the same compound, the IC50 in test [2] fell in the range of 0.101 to 1 µM.
Compound `COc1ccc2c(ccn2[C@H]2C[C@H](N(C)C)C2)c1` [Example 25, (1r,3r)-3-(5-methoxy-1H-indol-1-yl)-N,N-dimethylcyclobutan-1-amine] registered an EC50 in test [1] above 10 µM. In test [2], this compound returned an IC50 of 1 to 10 µM.
For the compound `CN(C)C(C)(C)Cn1ccc2c(F)cccc21` [Example 18, 1-(4-fluoro-1H-indol-1-yl)-N,N,2-trimethylpropan-2-amine], the EC50 in test [1] is above 10 µM. Further, the IC50 in test [2] is above 10 µM.
With `CN(C)C(C)(C)Cn1ccc2cccc(F)c21` [Example 20, 1-(7-fluoro-1H-indol-1-yl)-N,N,2-trimethylpropan-2-amine], the EC50 in test [1] was above 10 µM. The compound also came in with an IC50 in test [2] above 10 µM.
As for `COc1cc(F)c2c(ccn2CC(C)(C)N(C)C)c1` [Example 17, 1-(7-fluoro-5-methoxy-1H-indol-1-yl)-N,N,2-trimethylpropan-2-amine], in test [1], the EC50 was above 10 µM. Besides, the IC50 in test [2] was above 10 µM.
Regarding `COc1ccc2c(ccn2C[C@@H](C)N(C)C)n1` [Example 30, (R)-1-(5-methoxy-1H-pyrrolo[3,2-b]pyridin-1-yl)-N,N-dimethylpropan-2-amine], the EC50 in test [1] is above 10 µM. Also, the IC50 in test [2] is above 10 µM.
Take `CN[C@H](C)Cn1ccc2cc(OC)ncc21` [Example 32, (R)-1-(5-methoxy-1H-pyrrolo[2,3-c]pyridin-1-yl)-N-methylpropan-2-amine]: the EC50 in test [1] lay within 1 to 10 µM. This compound yielded an IC50 in test [2] of 1 to 10 µM.
As for `COc1ncc2c(ccn2CC(C)(C)N(C)C)n1` [Example 23, 1-(2-methoxy-5H-pyrrolo[3,2-d]pyrimidin-5-yl)-N,N,2-trimethylpropan-2-amine], in test [1], the EC50 was above 10 µM. In addition, the IC50 in test [2] is above 10 µM.
`CC(C)(N)Cn1ccc2c(F)c(F)ccc21` [Example 41, 1-(4,5-difluoro-1H-indol-1-yl)-2-methylpropan-2-amine] yielded an EC50 in test [1] of 0.101 to 1 µM. In test [2], this compound registered a concentration for half-maximal inhibition (IC50) of 0.101 to 1 µM.
Turning to `CN(C)CCn1ccc2cncnc21` [Example 6, N,N-dimethyl-2-(7H-pyrrolo[2,3-d]pyrimidin-7-yl)ethan-1-amine], the 50% effective concentration (EC50) in test [1] is above 10 µM. For the same compound, the IC50 in test [2] lay within 1 to 10 µM.
As to `C[C@H](C(=O)n1ccc2ccccc21)N(C)C` [Example 46, (R)-2-(dimethylamino)-1-(1H-indol-1-yl)propan-1-one], the EC50 in test [1] is above 10 µM. In test [2], the IC50 was in the range of 1 to 10 µM.
For `Cc1cn(CC(C)(C)N(C)C)c2ccc(F)cc12` [Example 13, 1-(5-fluoro-3-methyl-1H-indol-1-yl)-N,N,2-trimethylpropan-2-amine], in that order: 1 to 10 µM and 1 to 10 µM.
In test [1], `COc1ccc2c(ccn2CC(C)(C)N(C)C)c1` [Example 1, 1-(5-methoxy-1H-indol-1-yl)-N,N,2-trimethylpropan-2-amine] came in with an EC50 above 10 µM. Besides, in test [2], the IC50 is 1 to 10 µM.
With `C[C@H](Cn1ccc2cnccc21)N(C)C` [Example 39, (R)—N,N-dimethyl-1-(1H-pyrrolo[3,2-c]pyridin-1-yl)propan-2-amine], the EC50 in test [1] was above 10 µM. For the same compound, the IC50 in test [2] was above 10 µM.
In test [1], `COc1cc2ccn(CC(C)(C)N(C)C)c2cc1F` [Example 16, 1-(6-fluoro-5-methoxy-1H-indol-1-yl)-N,N,2-trimethylpropan-2-amine] displayed an EC50 above 10 µM. In addition, the IC50 in test [2] was above 10 µM.
`COc1ccc2c(ccn2C(=O)[C@@H](C)N(C)C)c1` [Example 47, (R)-2-(dimethylamino)-1-(5-methoxy-1H-indol-1-yl)propan-1-one] came in with a half-maximal effective concentration (EC50) in test [1] above 10 µM. In test [2], the IC50 was above 10 µM.
`C[C@@H](N)Cn1ccc2cncnc21` [Example 26, (R)-1-(7H-pyrrolo[2,3-d]pyrimidin-7-yl)propan-2-amine] showed an EC50 in test [1] of 1 to 10 µM. The same compound yielded an IC50 in test [2] of 1 to 10 µM.
In turn, `Cc1cn(CC(C)(C)N)c2ccc(F)cc12` [Example 40, 1-(5-fluoro-3-methyl-1H-indol-1-yl)-2-methylpropan-2-amine] showed an EC50 in test [1] of 0.101 to 1 µM. The compound also gave an IC50 in test [2] of 0.101 to 1 µM.
For the compound `CN[C@H](C)Cn1ccc2nc(OC)ccc21` [Example 29, (R)-1-(5-methoxy-1H-pyrrolo[3,2-b]pyridin-1-yl)-N-methylpropan-2-amine], the EC50 in test [1] is above 10 µM. In test [2], this compound yielded a half-maximal inhibitory concentration (IC50) above 10 µM.
The compound `COc1cc2ccn(C[C@@H](C)N)c2cn1` [Example 31, (R)-1-(5-methoxy-1H-pyrrolo[2,3-c]pyridin-1-yl)propan-2-amine] registered an EC50 in test [1] of 0.101 to 1 µM. The same compound showed an IC50 in test [2] of 0.101 to 1 µM.
The compound `CN(C)CCn1ccc2cnccc21` [Example 7, N,N-dimethyl-2-(1H-pyrrolo[3,2-c]pyridin-1-yl)ethan-1-amine] registered an EC50 in test [1] above 10 µM. Moreover, in test [2], the IC50 was above 10 µM.
`COc1ccc2c(ccn2CC2(N(C)C)CC2)c1` [Example 2, 1-((5-methoxy-1H-indol-1-yl)methyl)-N,N-dimethylcyclopropan-1-amine]: the EC50 in test [1] was above 10 µM. In test [2], this compound had an IC50 of 1 to 10 µM.
`C[C@H](C(=O)n1ccc2cc(F)ccc21)N(C)C` [Example 48, (R)-2-(dimethylamino)-1-(5-fluoro-1H-indol-1-yl)propan-1-one] gave an EC50 in test [1] above 10 µM. The same compound yielded an IC50 in test [2] of 1 to 10 µM.
In the case of `COc1ccc2c(ccn2CC(C)(C)N(C)C)n1` [Example 21, 1-(5-methoxy-1H-pyrrolo[3,2-b]pyridin-1-yl)-N,N,2-trimethylpropan-2-amine], the EC50 in test [1] is above 10 µM. This compound gave an IC50 in test [2] above 10 µM.
On to `COc1ccc2c(c1)CCN(CCN(C)C)C2` [Example 11, 2-(6-methoxy-3,4-dihydroisoguinolin-2(1H)-yl)-N,N-dimethylethan-1-amine], for which the EC50 in test [1] is above 10 µM. In test [2], the IC50 was 0.101 to 1 µM.
`CN[C@H](C)Cn1ccc2cc(OC)cnc21` [Example 35, (R)-1-(5-methoxy-1H-pyrrolo[2,3-b]pyridin-1-yl)-N-methylpropan-2-amine]: in test [1], the 50% effective concentration (EC50) fell in the range of 1 to 10 µM. In addition, the IC50 in test [2] is above 10 µM.
Take `COc1cnc2c(ccn2C[C@@H](C)N(C)C)c1` [Example 36, (R)-1-(5-methoxy-1H-pyrrolo[2,3-b]pyridin-1-yl)-N,N-dimethylpropan-2-amine]: the EC50 in test [1] lay within 1 to 10 µM. The same compound gave an IC50 in test [2] of 1 to 10 µM.
`CN(C)C(C)(C)Cn1ccc2c(F)c(F)ccc21` [Example 12, 1-(4,5-difluoro-1H-indol-1-yl)-N,N,2-trimethylpropan-2-amine] had an EC50 in test [1] above 10 µM. This compound showed an IC50 in test [2] above 10 µM.
Turning to `COc1ccc2c(ccn2CCN(C)C)n1` [Example 3, 2-(5-methoxy-1H-pyrrolo[3,2-b]pyridin-1-yl)-N,N-dimethylethan-1-amine], the EC50 in test [1] is above 10 µM. Besides, in test [2], the IC50 lay in the range of 0.101 to 1 µM.
For the compound `C[C@H](Cn1ccc2cncnc21)N(C)C` [Example 27, (R)—N,N-dimethyl-1-(7H-pyrrolo[2,3-d]pyrimidin-7-yl)propan-2-amine], the 50% effective concentration (EC50) in test [1] is above 10 µM. In test [2], this compound displayed an IC50 above 10 µM.
In test [1], `COc1ccc2c(ccn2C(=O)CN(C)C)c1` [Example 45, 2-(dimethylamino)-1-(5-methoxy-1H-indol-1-yl)ethan-1-one] gave an EC50 above 10 µM. For the same compound, the IC50 in test [2] is above 10 µM.
Turning to `CN(C)C(C)(C)Cn1ccc2ccc(F)cc21` [Example 19, 1-(6-fluoro-1H-indol-1-yl)-N,N,2-trimethylpropan-2-amine], the EC50 in test [1] is above 10 µM. The IC50 in test [2] is above 10 µM.
`COc1ccc2c(ccn2C[C@@H](C)N)n1` [Example 28, (R)-1-(5-methoxy-1H-pyrrolo[3,2-b]pyridin-1-yl)propan-2-amine] registered an EC50 in test [1] of 1 to 10 µM. In test [2], this compound yielded an IC50 above 10 µM.
